Data from patent publication US12568971B2, “Degradative method” (Catexel Technologies Limited, priority 2020, dated 2026).

Columns and labels:
[1] = Dynamic viscosity of alginate solution after treatment (alginate depolymerisation), Brookfield cone/plate viscometer
Experimental: The bottle was placed in a warm water bath (50° C.) for 60 minutes before being removed and cooled in an ice bath. Finally, the dynamic viscosity was determined using a Brookfield viscosity meter as outlined below. Note 1: A 2 mM solution of [[…])2 (see description of stock 12 above) was mixed with equivalent volume of the 2 mM ascorbic acid stock solution (stock solution 7). Upon contact with the ascorbic acid, the catalyst turned from orange/red to red/purple. Note 2: 0.5 mL of both Me3-TACN ligand (stock solution 10) and MnSO4·H2O (stock solution 8) were mixed, stirred and used as a source of catalyst to be placed in the alginate solution. The dynamic viscosity of the samples was measured using a Brookfield HBDV-II cone/plate viscosity meter equipped with a spindle CPE-40. The viscometer was linked to a water bath to maintain the temperature at 25° C. The apparatus was controlled via computer (external mode) using the Rheocalc software. Initially, the viscometer was zeroed without spindle. Then, the spindle CPE-40 was installed and the gap between the bottom of the cone and the top of the cup was set according to the recommendations given by Brookfield. 0.5 mL of the treated alginate solution was placed in the cup of the viscometer using a disposable plastic syringe before the apparatus was closed and the test program launched. […] Results.

[2] = as above; remark: listed apart in the source

For `CC(=O)[O-].CC(=O)[O-].CN1CCN(C)CCN(C)CC1.CN1CCN(C)CCN(C)CC1.[Mn+4].[Mn+4].[O-2].[O-2].[O-2]` [[Mn2(μ-O)3(Me3-TACN)2]^2+, [Mn^IVMn^IV(μ-O)3(1,4,7-trimethyl-1,4,7-triazacyclononane)2][CH3COO]2], the “Dynamic Viscosity” value ([1]; 2.5 μM, pH 8.0, 20 mM H2O2, 4.7 mM NaHCO3, 1 h at 50° C.) was 85.0 mPa.s, the “Dynamic Viscosity” value ([1]; 2.5 μM, pH 8.5, 20 mM H2O2, 4.7 mM NaHCO3, 1 h at 50° C.) was 72.2 mPa.s and the “Dynamic Viscosity” value ([1]; 2.5 μM, pH 9.0, 20 mM H2O2, 4.7 mM NaHCO3, 1 h at 50° C.) was 55.7 mPa.s. For the same molecule, the “Dynamic Viscosity” value ([1]; 2.5 μM, pH 9.0, 20 mM H2O2, 1 h at 50° C.) was 99.7 mPa · s, the “Dynamic Viscosity” value ([1]; 2.5 μM, pH 9.5, 20 mM H2O2, 4.7 mM NaHCO3, 1 h at 50° C.) was 59.5 mPa.s and the “Dynamic Viscosity” value ([1]; 2.5 μM, pH 9.5, 20 mM H2O2, 1 h at 50° C.) was 76.8 mPa · s. The “Dynamic Viscosity” value ([1]; 2.5 μM, pH 10.0, 20 mM H2O2, 4.7 mM NaHCO3, 1 h at 50° C.) was 81.2 mPa.s, the “Dynamic Viscosity” value ([1]; 2.5 μM, pH 10.0, 20 mM H2O2, 1 h at 50° C.) was 60.6 mPa · s and the “Dynamic Viscosity” value ([1]; 2.5 μM, pH 10.5, 20 mM H2O2, 4.7 mM NaHCO3, 1 h at 50° C.) was 67.5 mPa.s. For the same molecule, the “Dynamic Viscosity” value ([1]; 2.5 μM, pH 10.5, 20 mM H2O2, 1 h at 50° C.) was 56.6 mPa · s, the “Dynamic Viscosity” value ([1]; 2.5 μM, pH 11.0, 20 mM H2O2, 1 h at 50° C.) was 64.8 mPa · s and the “Dynamic Viscosity” value ([1]; 5 μM, 20 mM ^tBuOOH, 0.25 g/L sodium tetraborate decahydrate pH 9, 60 min at 50° C.) was 52.3 mPa · s. The “Dynamic Viscosity” value ([1]; 5 μM, pH 8.0, 20 mM H2O2, 4.7 mM NaHCO3, 1 h at 50° C.) was 50.9 mPa.s, the “Dynamic Viscosity” value ([1]; 5 μM, pH 8.5, 20 mM H2O2, 4.7 mM NaHCO3, 1 h at 50° C.) was 38.6 mPa.s and the “Dynamic Viscosity” value ([1]; 5 μM, pH 9, 10 mM H2O2, 4.7 mM NaHCO3, 60 min at 50° C.) was 21.6 mPa · s. For the same molecule, the “Dynamic Viscosity” value ([1]; 5 μM, pH 9.0, 20 mM H2O2, 4.7 mM NaHCO3, 1 h at 50° C.) was 24.1 mPa.s, the “Dynamic Viscosity” value ([1]; 5 μM, pH 9.0, 20 mM H2O2, 1 h at 50° C.) was 78.1 mPa · s and the “Dynamic Viscosity” value ([1]; 5 μM, pH 9.5, 20 mM H2O2, 4.7 mM NaHCO3, 1 h at 50° C.) was 28.0 mPa.s. For the same molecule, the “Dynamic Viscosity” value ([1]; 5 μM, pH 9.5, 20 mM H2O2, 1 h at 50° C.) was 41.3 mPa · s, the “Dynamic Viscosity” value ([1]; 5 μM, pH 10, 10 mM H2O2, 4.7 mM NaHCO3, 60 min at 50° C.) was 40.6 mPa · s and the “Dynamic Viscosity” value ([1]; 5 μM, pH 10.0, 20 mM H2O2, 4.7 mM NaHCO3, 1 h at 40° C.) was 54.2 mPa · s. For the same molecule, the “Dynamic Viscosity” value ([1]; 5 μM, pH 10.0, 20 mM H2O2, 4.7 mM NaHCO3, 1 h at 50° C.) was 61.0 mPa.s, the “Dynamic Viscosity” value ([1]; 5 μM, pH 10.0, 20 mM H2O2, 1 h at 50° C.) was 27.2 mPa · s and the “Dynamic Viscosity” value ([1]; 5 μM, pH 10.5, 20 mM H2O2, 4.7 mM NaHCO3, 1 h at 50° C.) was 57.0 mPa.s. For the same molecule, the “Dynamic Viscosity” value ([1]; 5 μM, pH 10.5, 20 mM H2O2, 1 h at 50° C.) was 25.6 mPa · s, the “Dynamic Viscosity” value ([1]; 5 μM, pH 11, 10 mM H2O2, 4.7 mM NaHCO3, 60 min at 50° C.) was 62.1 mPa · s and the “Dynamic Viscosity” value ([1]; 5 μM, pH 11.0, 20 mM H2O2, 1 h at 50° C.) was 40.4 mPa · s. For the same molecule, the “Dynamic Viscosity” value ([1]; 10 μM +1 molar equivalent ascorbic acid, pH 9.0, 0 mM Dequest 2047, 20 mM H2O2, 4.7 mM NaHCO3, 60 minutes at room temperature) was 7.9 mPa · s, the “Dynamic Viscosity” value ([1]; 10 μM +1 molar equivalent ascorbic acid, pH 9.0, 20 mM H2O2, 4.7 mM NaHCO3, 60 minutes at 40° C.) was 7.4 mPa.s and the “Dynamic Viscosity” value ([1]; 10 μM, no ascorbic acid, pH 9.5, 0 mM Dequest 2047, 20 mM H2O2, 4.7 mM NaHCO3, 60 minutes at room temperature) was 19.3 mPa · s. For the same molecule, the “Dynamic Viscosity” value ([1]; 10 μM, no ascorbic acid, pH 10.5, 1.0 mM Dequest 2047, 20 mM H2O2, 4.7 mM NaHCO3, 60 minutes at room temperature) was 42.6 mPa · s, the “Dynamic Viscosity” value ([1]; 10 μM, 1.5 mM PAA + 1.5 mM H2O2, 0.185M Tris buffer, pH 8.5, 60 min at 30° C.) was 85.3 mPa · s and the “Dynamic Viscosity” value ([1]; 10 μM, 3 mM H2O2, 0.185M Tris buffer, pH 8.5, 60 min at 30° C.) was 49.4 mPa · s. The “Dynamic Viscosity” value ([1]; 10 μM, pH 8.0, 20 mM H2O2, 4.7 mM NaHCO3, 1 h at 40° C.) was 24.2 mPa · s, the “Dynamic Viscosity” value ([1]; 10 μM, pH 8.0, 20 mM H2O2, 4.7 mM NaHCO3, 1 h at 50° C.) was 26.3 mPa.s and the “Dynamic Viscosity” value ([1]; 10 μM, pH 8.5, 20 mM H2O2, 4.7 mM NaHCO3, 1 h at 50° C.) was 16.1 mPa.s. For the same molecule, the “Dynamic Viscosity” value ([1]; 10 μM, pH 9.0, 20 mM H2O2, 4.7 mM NaHCO3, 1 h at 40° C.) was 9.1 mPa · s, the “Dynamic Viscosity” value ([1]; 10 μM, pH 9.0, 20 mM H2O2, 4.7 mM NaHCO3, 1 h at 50° C.) was 9.4 mPa.s and the “Dynamic Viscosity” value ([1]; 10 μM, pH 9.0, 20 mM H2O2, 1 h at 50° C.) was 47.9 mPa · s. For the same molecule, the “Dynamic Viscosity” value ([1]; 10 μM, pH 9.5, 20 mM H2O2, 4.7 mM NaHCO3, 1 h at 40° C.) was 10.5 mPa · s, the “Dynamic Viscosity” value ([1]; 10 μM, pH 9.5, 20 mM H2O2, 4.7 mM NaHCO3, 1 h at 50° C.) was 12.8 mPa.s and the “Dynamic Viscosity” value ([1]; 10 μM, pH 9.5, 20 mM H2O2, 1 h at 50° C.) was 16.2 mPa · s. For the same molecule, the “Dynamic Viscosity” value ([1]; 10 μM, pH 10.0, 20 mM H2O2, 4.7 mM NaHCO3, 1 h at 50° C.) was 38.1 mPa.s, the “Dynamic Viscosity” value ([1]; 10 μM, pH 10.0, 20 mM H2O2, 1 h at 50° C.) was 11.9 mPa · s and the “Dynamic Viscosity” value ([1]; 10 μM, pH 10.5, 20 mM H2O2, 4.7 mM NaHCO3, 1 h at 50° C.) was 49.4 mPa.s. For the same molecule, the “Dynamic Viscosity” value ([1]; 10 μM, pH 10.5, 20 mM H2O2, 1 h at 50° C.) was 11.1 mPa · s, the “Dynamic Viscosity” value ([1]; 10 μM, pH 11.0, 20 mM H2O2, 1 h at 50° C.) was 37.4 mPa · s and the “Dynamic Viscosity” value ([1]; Entry 4: 2.5 μM catalyst, 2.5 μM ascorbic acid, 2.5 μM Me3TACN ligand, 20 mM H2O2, 4.7 mM NaHCO3, pH 10, 60 min at 50° C.) was 72.5 mPa · s. For the same molecule, the “Dynamic Viscosity” value ([1]; Entry 5: 2.5 μM catalyst, 2.5 μM ascorbic acid, 5 μM Me3TACN ligand, 20 mM H2O2, 4.7 mM NaHCO3, pH 10, 60 min at 50° C.) was 69.3 mPa · s, the “Dynamic Viscosity” value ([1]; Entry 6: 2.5 μM catalyst, 2.5 μM ascorbic acid, 10 μM Me3TACN ligand, 20 mM H2O2, 4.7 mM NaHCO3, pH 10, 60 min at 50° C.) was 61.7 mPa · s and the “Dynamic Viscosity” value ([1]; Entry 7: 2.5 μM catalyst, no ascorbic acid, no added ligand, 20 mM H2O2, 4.7 mM NaHCO3, pH 10, 60 min at 50° C.) was 78.1 mPa · s. For the same molecule, the “Dynamic Viscosity” value ([1]; Entry 8: 2.5 μM catalyst, 2.5 μM Me3TACN ligand, 20 mM H2O2, 4.7 mM NaHCO3, pH 10, 60 min at 50° C.) was 73.3 mPa · s, the “Dynamic Viscosity” value ([1]; Entry 9: 2.5 μM catalyst, 5 μM Me3TACN ligand, 20 mM H2O2, 4.7 mM NaHCO3, pH 10, 60 min at 50° C.) was 66.6 mPa · s and the “Dynamic Viscosity” value ([1]; Entry 10: 2.5 μM catalyst, 10 μM Me3TACN ligand, 20 mM H2O2, 4.7 mM NaHCO3, pH 10, 60 min at 50° C.) was 56.8 mPa · s. The “Dynamic Viscosity” value ([1]; Entry 11: 5 μM catalyst, no added ligand, 20 mM H2O2, 4.7 mM NaHCO3, pH 10, 60 min at 50° C.) was 61.0 mPa · s, the “Dynamic Viscosity” value ([1]; Entry 12: 5 μM catalyst, 5 μM Me3TACN ligand, 20 mM H2O2, 4.7 mM NaHCO3, pH 10, 60 min at 50° C.) was 54.0 mPa · s and the “Dynamic Viscosity” value ([1]; Entry 13: 5 μM catalyst, 10 μM Me3TACN ligand, 20 mM H2O2, 4.7 mM NaHCO3, pH 10, 60 min at 50° C.) was 47.7 mPa · s. For the same molecule, the “Dynamic Viscosity” value ([1]; Entry 14: 5 μM catalyst, 20 μM Me3TACN ligand, 20 mM H2O2, 4.7 mM NaHCO3, pH 10, 60 min at 50° C.) was 38.1 mPa · s, the “Dynamic Viscosity” value ([2]; 5 μM, pH 9.0, 20 mM H2O2, 4.7 mM NaHCO3, 1 h at 40° C.) was 17.9 mPa · s and the “Dynamic Viscosity” value ([2]; 10 μM, 3 mM PAA, 0.185M Tris buffer, pH 8.5, 60 min at 30° C.) was 94.8 mPa · s. The “Dynamic Viscosity” value ([2]; 10 μM, pH 10.5, 20 mM H2O2, 4.7 mM NaHCO3, 1 h at 40° C.) was 65.5 mPa · s.
